According to patent publication EP1247803A2, “Indolinone compounds suitable for modulation of protein kinases” (Sugen, Inc., priority 1996, dated 1998):

Biological target: T1, EGFR (Homo sapiens, UniProt P00533)
T1 construct: Add 7 ug A431 cell lysate per well (EGFR source); endogenous in cells; host or cells: A431
Test: EGFR ELISA assay (in vitro kinase activity, EGFR captured from A431 cell lysate)
Type: biochemical
Set-up: concentration or dose not given beside the values
In short: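 EGFR from A431 lysate was captured on plates coated with anti-EGFR antibody. Compounds were added 30 min before a 5 min phosphorylation with 3 µM ATP/5 mM MnCl2, which was stopped with 20 mM EDTA. Phosphotyrosine was detected with rabbit anti-phosphotyrosine, then a peroxidase-conjugated secondary and ABTS/H2O2, read at 410 nm.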

T1 sequence (P00533 25-1210): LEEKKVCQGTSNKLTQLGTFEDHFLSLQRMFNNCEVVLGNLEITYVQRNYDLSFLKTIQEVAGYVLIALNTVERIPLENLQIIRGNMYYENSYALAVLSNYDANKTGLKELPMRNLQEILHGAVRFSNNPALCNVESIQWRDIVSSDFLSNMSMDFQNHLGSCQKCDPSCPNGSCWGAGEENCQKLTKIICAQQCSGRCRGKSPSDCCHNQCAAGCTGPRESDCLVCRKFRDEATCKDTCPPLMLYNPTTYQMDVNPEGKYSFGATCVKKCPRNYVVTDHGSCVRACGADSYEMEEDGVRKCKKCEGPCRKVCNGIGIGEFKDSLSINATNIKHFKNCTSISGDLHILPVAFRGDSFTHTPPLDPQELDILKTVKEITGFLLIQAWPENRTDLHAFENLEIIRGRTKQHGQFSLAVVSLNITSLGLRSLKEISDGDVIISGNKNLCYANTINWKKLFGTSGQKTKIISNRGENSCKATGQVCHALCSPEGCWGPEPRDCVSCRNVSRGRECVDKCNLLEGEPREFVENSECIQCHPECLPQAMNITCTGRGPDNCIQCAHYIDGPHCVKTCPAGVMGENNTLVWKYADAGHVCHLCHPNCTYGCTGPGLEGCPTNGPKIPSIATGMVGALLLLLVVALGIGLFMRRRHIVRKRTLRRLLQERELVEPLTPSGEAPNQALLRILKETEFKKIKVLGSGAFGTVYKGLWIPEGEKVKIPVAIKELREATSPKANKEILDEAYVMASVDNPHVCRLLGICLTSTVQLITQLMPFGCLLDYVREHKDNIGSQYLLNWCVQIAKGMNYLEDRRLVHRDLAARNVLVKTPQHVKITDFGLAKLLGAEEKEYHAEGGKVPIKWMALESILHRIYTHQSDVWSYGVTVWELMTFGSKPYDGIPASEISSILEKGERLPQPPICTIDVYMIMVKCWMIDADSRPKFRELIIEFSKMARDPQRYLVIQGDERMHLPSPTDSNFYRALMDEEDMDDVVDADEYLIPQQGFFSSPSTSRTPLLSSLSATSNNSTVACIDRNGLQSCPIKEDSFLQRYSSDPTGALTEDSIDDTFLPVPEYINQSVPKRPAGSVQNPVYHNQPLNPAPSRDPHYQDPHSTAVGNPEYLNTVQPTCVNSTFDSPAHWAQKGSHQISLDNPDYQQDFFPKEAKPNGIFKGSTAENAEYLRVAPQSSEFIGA

Row | SMILES | Biochem EGFR %Inhibition
1 | Cc1c(Br)ccc2c1C(=Cc1ccc([N+](=O)[O-])c(O)c1)C(=O)N2 [10724/C04] | 13.2%
2 | COc1ccc(Br)c(C=C2C(=O)Nc3c(Br)cc(Br)cc32)c1O [10725/A03] | -38.2%
3 | Cc1c(Br)ccc2c1C(=Cc1cc3ccccc3o1)C(=O)N2 [10724/C07] | 9.4%
4 | CC(C)c1cc(C=C2C(=O)Nc3ccc(I)cc32)cc(C(C)C)c1O [10724/B06] | 30.9%
5 | O=C1Nc2ccc(S(=O)(=O)N3CCOCC3)cc2C1=Cc1ccc(F)cc1 [10717/F05] | -20.1%
6 | Cc1c(Br)cc(Br)c2c1C(=Cc1c[nH]cn1)C(=O)N2 [10725/A11] | 14.6%
7 | O=C1Nc2ccc(I)cc2C1=Cc1c(Br)cnn1-c1ccc(Cl)cc1 [10725/B10] | 53.3%
8 | O=C1Nc2ccc(CCCl)cc2C1=Cc1ccc([N+](=O)[O-])c(O)c1 [10724/G04] | 12.9%
9 | CC(C)(C)c1cc(C=C2C(=O)Nc3ccc(CCCl)cc32)c(O)c(C(C)(C)C)c1 [10723/G11] | -35.0%
10 | O=C1Nc2c(Br)cc(Br)cc2C1=Cc1ccc(N2CCOCC2)cc1 [10725/A08] | 10.9%
11 | O=C1Nc2c(Br)cc(Br)cc2C1=Cc1cc2ccccc2o1 [10724/A07] | 18.3%
12 | COc1ccc(Br)c(C=C2C(=O)Nc3ccc(I)cc32)c1O [10725/B03] | -15.3%
13 | O=C1Nc2ccc(S(=O)(=O)Nc3ccc(C(F)(F)F)cc3)cc2C1=Cc1cc2c3c(c1O)CCCN3CCC2 [10724/E05] | 0.5%
14 | O=C1Nc2ccc(S(=O)(=O)N3CCOCC3)cc2C1=Cc1cccs1 [10717/F03] | -4.7%
15 | CN(C)c1ccc(C=C2C(=O)Nc3c(Br)cc(Br)cc32)c2ccccc12 [10724/A02] | 36.7%
16 | Cc1c(Br)cc(Br)c2c1C(=Cc1c(Br)cnn1-c1ccc(Cl)cc1)C(=O)N2 [10725/A10] | 14.0%
17 | CCc1ccc(C=C2C(=O)Nc3ccc(Br)c(C)c32)o1 [10724/C10] | 13.8%
18 | CN(C)c1ccc(C=C2C(=O)Nc3ccc(S(=O)(=O)Nc4ccc(C(F)(F)F)cc4)cc32)c2ccccc12 [10724/E02] | 39.8%
19 | O=C1Nc2ccc(I)cc2C1=Cc1cccn1-c1ccc(Cl)cc1 [10724/B09] | 8.7%
20 | CCOc1ccccc1C=C1C(=O)Nc2ccc(S(=O)(=O)N3CCOCC3)cc21 [10717/F02] | 6.2%
21 | Cc1csc2sc(C=C3C(=O)Nc4ccc(I)cc43)c(C)c12 [10724/B11] | -23.2%
22 | O=C1Nc2c(Br)cc(Br)cc2C1=Cc1sccc1Br [10725/A02] | 3.9%
23 | O=C1Nc2ccc(I)cc2C1=Cc1cc2ccccc2o1 [10724/B07] | 44.0%
24 | O=C1Nc2ccc(I)cc2C1=Cc1sccc1Br [10725/B02] | 2.5%
25 | O=C1Nc2ccc(I)cc2C1=Cc1c[nH]cn1 [10725/B11] | 43.0%
26 | CC(C)c1cc(C=C2C(=O)Nc3c(Br)cc(Br)cc32)cc(C(C)C)c1O [10724/A06] | 1.4%

Row | SMILES | Biochem EGFR %Inhibition
27 | Cc1c(Br)ccc2c1C(=Cc1cc3c4c(c1O)CCCN4CCC3)C(=O)N2 [10724/C05] | -0.8%
28 | CN(C)c1ccc(C=C2C(=O)Nc3ccc(CCCl)cc32)c2ccccc12 [10724/G02] | 42.5%
29 | COC(=O)Cc1c(Cl)[nH]c(C=C2C(=O)Nc3ccc(I)cc32)c1C(=O)OC [10725/B09] | 72.3%
30 | COc1cccc(O)c1C=C1C(=O)Nc2ccc(S(=O)(=O)Nc3ccc(C(F)(F)F)cc3)cc21 [10717/E10] | -6.1%
31 | O=CN1CCN(c2ccc(C=C3C(=O)Nc4ccc(I)cc43)cc2)CC1 [10725/B07] | 45.8%
32 | Cn1cccc1C=C1C(=O)Nc2ccc(S(=O)(=O)N3CCOCC3)cc21 [10717/F04] | -15.7%
33 | CNS(=O)(=O)c1ccc2c(c1)C(=Cc1cc3ccccc3o1)C(=O)N2 [10724/D07] | 25.6%
34 | COc1cc(C)cc(O)c1C=C1C(=O)Nc2c(Br)cc(Br)cc21 [10725/A06] | -9.5%
35 | O=C1Nc2ccc(CCCl)cc2C1=Cc1cccn1-c1ccc(Cl)cc1 [10724/G09] | -21.7%
36 | O=C1Nc2c(Br)cc(Br)cc2C1=Cc1cccn1-c1ccc(Cl)cc1 [10724/A09] | 1.6%
37 | COC(=O)Cc1c(Cl)[nH]c(C=C2C(=O)Nc3c(Br)cc(Br)c(C)c32)c1C(=O)OC [10725/A09] | 4.9%
38 | Cc1c(Br)ccc2c1C(=Cc1ccc(O)c([N+](=O)[O-])c1)C(=O)N2 [10724/C03] | 16.5%
39 | COc1cc(C)cc(O)c1C=C1C(=O)Nc2ccc(I)cc21 [10725/B06] | -13.7%
40 | CC(C)c1cc(C=C2C(=O)Nc3ccc(S(=O)(=O)Nc4ccc(C(F)(F)F)cc4)cc32)cc(C(C)C)c1O [10724/E06] | 1.6%
41 | O=C1Nc2c(Br)cc(Br)cc2C1=Cc1ccc([N+](=O)[O-])c(O)c1 [10724/A04] | 15.4%
42 | O=C1Nc2ccc(S(=O)(=O)Nc3ccc(C(F)(F)F)cc3)cc2C1=Cc1cc2ccccc2o1 [10724/E07] | 9.4%
43 | CNS(=O)(=O)c1ccc2c(c1)C(=Cc1cc(C(C)C)c(O)c(C(C)C)c1)C(=O)N2 [10724/D06] | -12.4%
44 | Cc1c(Br)ccc2c1C(=Cc1ccc(N(C)C)c3ccccc13)C(=O)N2 [10724/C02] | 53.6%
45 | O=C1Nc2ccc(S(=O)(=O)Nc3ccc(C(F)(F)F)cc3)cc2C1=Cc1cccn1-c1ccc(Cl)cc1 [10724/E09] | 6.3%
46 | O=C1Nc2ccc(CCCl)cc2C1=Cc1cccc(Br)c1 [10723/G10] | -4.1%
47 | CCc1ccc(C=C2C(=O)Nc3c(Br)cc(Br)cc32)o1 [10724/A10] | 40.0%
48 | Cn1cccc1C=C1C(=O)Nc2c(Br)cc(Br)cc21 [10717/A04] | 29.0%
49 | Cc1cc(C=C2C(=O)Nc3c(Br)cc(Br)cc32)[nH]n1 [10725/A05] | 7.9%
50 | O=C1Nc2ccc(S(=O)(=O)Nc3ccc(C(F)(F)F)cc3)cc2C1=Cc1ccc[nH]1 [10717/E09] | -5.8%
51 | O=C1Nc2ccc(I)cc2C1=Cc1ccc(N2CCOCC2)cc1 [10725/B08] | 41.8%
52 | Cc1csc2sc(C=C3C(=O)Nc4ccc(S(=O)(=O)Nc5ccc(C(F)(F)F)cc5)cc43)c(C)c12 [10724/E11] | -26.8%

Row | SMILES | Biochem EGFR %Inhibition
53 | O=C1Nc2ccc(S(=O)(=O)Nc3ccc(C(F)(F)F)cc3)cc2C1=Cc1ccc([N+](=O)[O-])c(O)c1 [10724/E04] | 8.9%
54 | O=C1Nc2ccc(I)cc2C1=Cc1ccc(O)c([N+](=O)[O-])c1 [10724/B03] | 14.9%
55 | O=C1Nc2c(Br)cc(Br)cc2C1=Cc1cc2c3c(c1O)CCCN3CCC2 [10724/A05] | 20.3%
56 | Cc1csc2sc(C=C3C(=O)Nc4ccc(CCCl)cc43)c(C)c12 [10724/G11] | -29.5%
57 | Cc1csc2sc(C=C3C(=O)Nc4c(Br)cc(Br)cc43)c(C)c12 [10724/A11] | -16.6%
58 | CNS(=O)(=O)c1ccc2c(c1)C(=Cc1cccn1-c1ccc(Cl)cc1)C(=O)N2 [10724/D09] | -15.3%
59 | CNS(=O)(=O)c1ccc2c(c1)C(=Cc1sc3scc(C)c3c1C)C(=O)N2 [10724/D11] | 12.9%
60 | O=C1Nc2ccc(CCCl)cc2C1=Cc1cc2c3c(c1O)CCCN3CCC2 [10724/G05] | -20.8%
61 | Cc1c(Br)ccc2c1C(=Cc1cc(C(C)C)c(O)c(C(C)C)c1)C(=O)N2 [10724/C06] | -2.4%
62 | CCc1ccc(C=C2C(=O)Nc3ccc(S(=O)(=O)NC)cc32)o1 [10724/D10] | 12.7%
63 | Cc1cc(C=C2C(=O)Nc3ccc(I)cc32)[nH]n1 [10725/B05] | 20.4%
64 | O=C1Nc2ccc(CCCl)cc2C1=Cc1cc2ccccc2o1 [10724/G07] | -11.7%
65 | CNS(=O)(=O)c1ccc2c(c1)C(=Cc1ccc(N(C)C)c3ccccc13)C(=O)N2 [10724/D02] | 40.5%
66 | Cc1c(Br)ccc2c1C(=Cc1cccn1-c1ccc(Cl)cc1)C(=O)N2 [10724/C09] | 1.0%
67 | Cc1[nH]c(C=C2C(=O)Nc3ccc(S(=O)(=O)Nc4ccc(C(F)(F)F)cc4)cc32)c(Br)c1Br [10717/E11] | 44.9%
68 | CNS(=O)(=O)c1ccc2c(c1)C(=Cc1ccc([N+](=O)[O-])c(O)c1)C(=O)N2 [10724/D04] | 5.4%
69 | CNS(=O)(=O)c1ccc2c(c1)C(=Cc1ccc(O)c([N+](=O)[O-])c1)C(=O)N2 [10724/D03] | 2.5%
70 | O=C1Nc2c(Br)cc(Br)cc2C1=Cc1ccc(O)c([N+](=O)[O-])c1 [10724/A03] | 17.2%
71 | Cc1c(Br)ccc2c1C(=Cc1sc3scc(C)c3c1C)C(=O)N2 [10724/C11] | 0.7%
72 | O=C1Nc2ccc(S(=O)(=O)Nc3ccc(C(F)(F)F)cc3)cc2C1=Cc1ccc(O)c([N+](=O)[O-])c1 [10724/E03] | 33.1%
73 | O=C1Nc2ccc(S(=O)(=O)N3CCOCC3)cc2C1=Cc1c[nH]c2ccccc12 [10717/F06] | -22.8%
74 | O=CN1CCN(c2ccc(C=C3C(=O)Nc4c(Br)cc(Br)cc43)cc2)CC1 [10725/A07] | 18.2%
75 | CC(C)c1cc(C=C2C(=O)Nc3ccc(CCCl)cc32)cc(C(C)C)c1O [10724/G06] | 3.2%
76 | CCc1ccc(C=C2C(=O)Nc3ccc(CCCl)cc32)o1 [10724/G10] | -10.6%
77 | O=C1Nc2ccc(CCCl)cc2C1=Cc1ccc(O)c([N+](=O)[O-])c1 [10724/G03] | 7.8%
78 | CCc1ccc(C=C2C(=O)Nc3ccc(S(=O)(=O)Nc4ccc(C(F)(F)F)cc4)cc32)o1 [10724/E10] | 41.4%
